Measured values: PMC9424690, “Phosphonic acid-containing inhibitors of tyrosyl-DNA phosphodiesterase 1” (Frontiers in Chemistry, 2022)
Read-outs that look alike come from different tables or passages of the source.

How the values were obtained:
[1] = target: T1, full-length TDP1 (Homo sapiens, UniProt Q9NUW8); set-up: method as in Zhao et al., 2021; details: gel-based fluorescence assay, compounds reported in previous paper, ref Zhao et al., 2021; cited from earlier work
T1 construct: was incubated with recombinant full-length TDP1 or TDP1 (148–608) (40 p.m.)
T1 sequence (Q9NUW8 whole entry): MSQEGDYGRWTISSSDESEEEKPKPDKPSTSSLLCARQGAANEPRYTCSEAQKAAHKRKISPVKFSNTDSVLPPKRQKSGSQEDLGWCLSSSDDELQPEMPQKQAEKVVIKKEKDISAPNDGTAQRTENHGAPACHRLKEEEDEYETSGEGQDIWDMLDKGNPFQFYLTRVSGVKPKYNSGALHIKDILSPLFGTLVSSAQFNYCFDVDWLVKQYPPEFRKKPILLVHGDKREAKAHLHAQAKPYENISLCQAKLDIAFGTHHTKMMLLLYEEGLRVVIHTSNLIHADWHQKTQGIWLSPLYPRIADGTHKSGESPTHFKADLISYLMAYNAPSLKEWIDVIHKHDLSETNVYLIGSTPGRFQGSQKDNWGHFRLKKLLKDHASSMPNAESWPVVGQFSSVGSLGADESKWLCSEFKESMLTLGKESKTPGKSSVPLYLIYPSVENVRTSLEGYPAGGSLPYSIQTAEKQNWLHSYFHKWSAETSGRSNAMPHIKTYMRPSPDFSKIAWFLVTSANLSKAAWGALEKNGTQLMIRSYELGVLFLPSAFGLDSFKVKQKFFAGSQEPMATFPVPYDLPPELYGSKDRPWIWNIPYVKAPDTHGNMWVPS

[2] = target: T2, TDP1 (148–608) (Homo sapiens, UniProt Q9NUW8); test: Gel-based fluorescence assay of TDP1-catalyzed hydrolysis, truncated TDP1 (148–608); type: biochemical; details: for IC50: truncated TDP1 (148–608) catalytic domain, 5′-Cy5 N14Y DNA substrate, 15 min, room temperature, repeated three times
T2 construct: was incubated with recombinant full-length TDP1 or TDP1 (148–608) (40 p.m.)
T2 sequence (Q9NUW8 148-608): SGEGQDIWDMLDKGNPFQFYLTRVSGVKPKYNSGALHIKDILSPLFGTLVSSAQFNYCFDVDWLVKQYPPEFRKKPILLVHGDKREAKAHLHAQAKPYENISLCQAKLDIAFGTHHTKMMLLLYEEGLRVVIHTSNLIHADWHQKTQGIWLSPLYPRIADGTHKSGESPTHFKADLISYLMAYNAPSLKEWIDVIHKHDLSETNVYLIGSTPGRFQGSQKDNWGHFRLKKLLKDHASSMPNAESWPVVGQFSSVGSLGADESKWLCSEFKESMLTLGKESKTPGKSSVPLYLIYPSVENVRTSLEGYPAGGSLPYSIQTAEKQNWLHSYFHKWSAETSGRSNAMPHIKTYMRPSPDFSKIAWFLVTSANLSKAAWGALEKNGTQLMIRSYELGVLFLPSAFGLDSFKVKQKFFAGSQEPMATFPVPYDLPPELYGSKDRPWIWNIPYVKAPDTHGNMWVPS
Description: (§1) The synthetic products were examined for their ability to inhibit TDP1 catalysis in in vitro gel-based fluorescence assays as previously described ([Lountos et al., 2019]; [Zhao et al., 2021]). A 5′-Cy5-labelled DNA substrate (N14Y, 5′-Cy5-[…]-pY-3′) was incubated in TDP1 reaction buffer with recombinant TDP1 ([…].) or truncated TDP1 (148–608) in the absence or presence of inhibitors for 15 min at room temperature. Inhibitors were evaluated at concentrations ranging from 12 μM to 27 mM (Figure 4). The TDP1 inhibition values were calculated based on gel images of cleavage product (N14P, 5′-Cy5-[…]-p-3′) shown in Figure 4 and listed in Table 1.
(§2) The inhibition of TDP1 was also conducted according to gel-based as previously described ([Lountos et al., 2019]; [Zhao et al., 2021]). Briefly, the DNA substrate (1 nM, 5′Cy5-[…]-pY-3′) was incubated with recombinant full-length TDP1 or TDP1 (148–608) (40 p.m.) in the absence or presence of inhibitors for 15 min at room temperature in TDP1 reaction buffer (50 mM Tris HCl, pH 7.5, 80 mM KCl, 2 mM EDTA, 1 mM DTT, 40 μg/ml BSA and 0.01% Tween-20). Reactions were stopped by adding an equal volume of gel loading buffer (99.5% (v/v) formamide, 5 mM EDTA). Samples were then subjected to a 20% denaturing PAGE gel following by gel scanning using a Typhoon FLA 9500 scanner (GE Healthcare). The IC50 values of TDP1 inhibitors were calculated by comparing the percentage of cleavage product (5′Cy5-[…]-p-3′) to DMSO control.

[3] = target: T1, full-length TDP1; test: Gel-based fluorescence assay of TDP1-catalyzed hydrolysis, full-length TDP1; type: biochemical; details: for IC50: full-length recombinant TDP1, 5′-Cy5 N14Y DNA substrate, 15 min, room temperature, repeated three times
Description: as §1, §2

[4] = Drug solubility observed at high concentrations in the gel assay; type: physicochemical; details: high concentrations in TDP1 gel assay (crescent vague bands); series up to 9 mM (3c) or 27 mM
Description: FIGURE 4 Representative gels for inhibition of full-length TDP1-catalyzed hydrolysis by phenylphosphonic acids 3a—3e and benzylphosphonic acids 4a—4c. In each gel: lane 1, N14Y only; lane 2, N14Y and TDP1; lanes 3–10, 3-fold serial dilution of drugs from 12 μM to 27 mM except for 3c from 12 μM to 9 mM.

O=C(O)c1ccc(Nc2c(-c3ccccc3)nc3cnccn23)cc1C(=O)O [Compound 2a]
IC50 [1]: > 100 µM

O=P(O)(O)c1ccc(Nc2c(-c3ccccc3)nc3cnccn23)cc1 [Compound 3a, (4-((2-Phenylimidazo [1,2-a]pyrazin-3-yl)amino)phenyl)phosphonic acid]
IC50 [2]: 4720 ± 430 µM | IC50 [3]: 2450 ± 36 µM

O=P(O)(O)c1ccc(Nc2c(-c3ccccc3)nc3ccccn23)cc1 [Compound 3b, (4-((2-Phenylimidazo [1,2-a]pyridin-3-yl)amino)phenyl)phosphonic acid]
IC50 [2]: 3810 ± 751 µM | IC50 [3]: 1660 ± 160 µM

O=P(O)(O)c1ccc(Nc2c(-c3ccccc3)nc3cc(-c4ccccc4)ccn23)cc1 [Compound 3c, (4-((2,7-Diphenylimidazo [1,2-a]pyridin-3-yl)amino)phenyl)phosphonic acid]
More potent using catalytic domain TDP1 (148–608) relative to full-length TDP1 ([2]; TDP1 (148–608) vs full-length TDP1): 2 fold | IC50 [2]: 225 ± 2.3 µM | IC50 [3]: 545 ± 8 µM | Drug solubility [4]: poor drug solubility

O=P(O)(O)c1ccc(Nc2c(-c3ccccc3O)nc3ccccn23)cc1 [Compound 3d, (4-((2-(2-Hydroxyphenyl)imidazo [1,2-a]pyridin-3-yl)amino)phenyl)phosphonic acid]
IC50 [2]: 4480 ± 50 µM | IC50 [3]: 1580 ± 166 µM

O=P(O)(O)c1ccc(Nc2c(-c3ccccc3O)nc3cc(-c4ccccc4)ccn23)cc1 [Compound 3e, (4-((2-(2-Hydroxyphenyl)-7-phenylimidazo [1,2-a]pyridin-3-yl)amino)phenyl)phosphonic acid]
IC50 [2]: 605 ± 32 µM | IC50 [3]: 293 ± 7.5 µM | Drug solubility [4]: poor drug solubility

O=P(O)(O)Cc1ccc(Nc2c(-c3ccccc3)nc3cnccn23)cc1 [Compound 4a, (4-((2-Phenylimidazo [1,2-a]pyrazin-3-yl)amino)benzyl)phosphonic acid]
IC50 [2]: 4360 ± 472 µM | IC50 [3]: 1280 ± 112 µM

O=P(O)(O)Cc1ccc(Nc2c(-c3ccccc3)nc3ccccn23)cc1 [Compound 4b, (4-((2-Phenylimidazo [1,2-a]pyridin-3-yl)amino)benzyl)phosphonic acid]
IC50 [2]: 4810 ± 228 µM | IC50 [3]: 1650 ± 850 µM

O=P(O)(O)Cc1ccc(Nc2c(-c3ccccc3)nc3cc(-c4ccccc4)ccn23)cc1 [Compound 4c, (4-((2,7-Diphenylimidazo [1,2-a]pyridin-3-yl)amino)benzyl)phosphonic acid]
IC50 [2]: 1190 ± 350 µM | Increase of inhibitory potency on adding a 7-phenyl group ([3]; full-length TDP1, 3c and 3e relative to 3b and 3d, 4c relative to 4b): approximately 3 fold | IC50 [3]: 583 ± 11.5 µM
